Here are results for five compounds from ChEMBL document CHEMBL1275486, “Kinetic characterization of VIM-7, a divergent member of the VIM metallo-beta-lactamase family” (Antimicrob Agents Chemother, 2008).

The test system of experiment [1] is Escherichia coli. Description: Activity of Escherichia coli beta-lactamase VIM-1 by spectrophotometry.
Experiment [2] has as its system Escherichia coli. Description: Ratio of Kcat to Km for Escherichia coli beta-lactamase VIM-1 by spectrophotometry.

In the case of `CO[C@@]1(NC(=O)C(C(=O)O)c2ccc(O)cc2)C(=O)N2C(C(=O)O)=C(CSc3nnnn3C)CO[C@@H]21` (stereo not given in full), in the experiment on Escherichia coli [1], the Km turned out to be 450 µM and the kcat turned out to be 43 s⁻¹. In the experiment with Escherichia coli [2], the kcat/Km was 96000 M⁻¹ s⁻¹.

On to `CO[C@@]1(NC(=O)Cc2cccs2)C(=O)N2C(C(=O)O)=C(COC(N)=O)CS[C@@H]21`, for which, in the experiment on Escherichia coli [1], the Km was 130 µM and the kcat was 26 s⁻¹. Besides, the kcat/Km in the experiment on Escherichia coli [2] was determined as 200000 M⁻¹ s⁻¹.

With `C[C@]1(Cn2ccnn2)[C@H](C(=O)O)N2C(=O)C[C@H]2S1(=O)=O`, in the experiment with Escherichia coli [1], the Km was found to be 340 µM and the kcat was 5.3 s⁻¹. In the experiment with Escherichia coli [2], the kcat/Km is 16000 M⁻¹ s⁻¹.

Take `O=C(Cc1cccs1)N[C@@H]1C(=O)N2C(C(=O)O)=C(/C=C/c3ccc([N+](=O)[O-])cc3[N+](=O)[O-])CS[C@H]12`: in the experiment on Escherichia coli [1], the Km stood at 17 µM and the kcat worked out at 95 s⁻¹. Besides, in the experiment with Escherichia coli [2], the kcat/Km is 5.6e+06 M⁻¹ s⁻¹.

For the compound `CC1(C)S[C@@H]2[C@H](NC(=O)C(C(=O)O)c3ccccc3)C(=O)N2[C@H]1C(=O)O` (stereo not given in full), in the experiment on Escherichia coli [1], the Km is 75 µM and the kcat came out at 170 s⁻¹. Besides, in the experiment with Escherichia coli [2], the kcat/Km was found to be 2.3e+06 M⁻¹ s⁻¹.
